Experimental data published in PubChem BioAssay AID330 (DTP/NCI, 2004).
“And” between values parts separate entries of the source, which are not always exact repeats. Equal values may be shown once. Toxic doses and inconclusive results are not listed. The calls were made as follows: active = survival T/C of 150% or more; inactive = T/C below 125% in these data.

Tested on: P388 leukemia ip, CD2F1 mice, survival T/C
Assay: NCI In Vivo Anticancer Drug Screen. Data for tumor model P388 Leukemia (intraperitoneal) in CD2F1 (CDF1) mice
Conditions: endpoint: median survival time, higher = longer survival
Procedure, shortened: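 Mice carrying the transplanted tumor received test compound or vehicle. Survival was recorded in each group, and the value is the treated-group measurement divided by that of the vehicle-treated control group.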

[1] = dose: 50.0 mg/kg/injection, schedule: Q01DX009 (ip), vehicle: saline
[2] = dose: 100.0 mg/kg/injection, schedule: Q01DX009 (ip), vehicle: saline
[3] = dose: 60.0 mg/kg/injection, schedule: Q01DX005 (ip), vehicle: saline with Tween-80
[4] = dose: 50.0 mg/kg/injection, schedule: Q01DX005 (ip), vehicle: saline with Tween-80
[5] = dose: 100.0 mg/kg/injection, schedule: Q01DX005 (ip), vehicle: saline with Tween-80
[6] = dose: 200.0 mg/kg/injection, schedule: Q01DX005 (ip), vehicle: saline with Tween-80
[7] = dose: 120.0 mg/kg/injection, schedule: Q01DX005 (ip), vehicle: saline with Tween-80
[8] = dose: 240.0 mg/kg/injection, schedule: Q01DX005 (ip), vehicle: saline with Tween-80
[9] = dose: 6.25 mg/kg/injection, schedule: Q01DX009 (ip), vehicle: Klucel (hydroxypropylcellulose) (HPC)
[10] = dose: 12.5 mg/kg/injection, schedule: Q01DX009 (ip), vehicle: Klucel (hydroxypropylcellulose) (HPC)
[11] = dose: 25.0 mg/kg/injection, schedule: Q01DX009 (ip), vehicle: Klucel (hydroxypropylcellulose) (HPC)
[12] = dose: 50.0 mg/kg/injection, schedule: Q01DX009 (ip), vehicle: Klucel (hydroxypropylcellulose) (HPC)

Measured: T/C

O=P(O)(O)O.[Cr+3].[NH-]CC[NH-].[NH-]CC[NH-].[NH-]CC[NH-]
inactive: dose: 25.0 mg/kg/injection, schedule: Q01DX009 (ip), vehicle: saline 101 % of control | [1] 97 % of control | [2] 99 % of control

CN(C)/N=C1/CCCCC1C(O)(c1ccccc1)c1ccccc1 (stereo not drawn)
inactive: [3] 97 % of control

Nc1[nH]c(=S)[nH]c(=O)c1N=Nc1ccccc1
inactive: dose: 100.0 mg/kg/injection, schedule: Q01DX001 (ip), vehicle: saline with Tween-80 98 % of control | dose: 200.0 mg/kg/injection, schedule: Q01DX001 (ip), vehicle: saline with Tween-80 102 % of control | dose: 400.0 mg/kg/injection, schedule: Q01DX001 (ip), vehicle: saline with Tween-80 117 % of control

CCCCCCCCSC1=C(Cl)C(=O)C(OC)=C(OC)C1=O
inactive: dose: 1.5 mg/kg/injection, schedule: Q04DX002 (ip), vehicle: saline with Tween-80 101 % of control | dose: 3.0 mg/kg/injection, schedule: Q04DX002 (ip), vehicle: saline with Tween-80 99 % of control | dose: 6.0 mg/kg/injection, schedule: Q04DX002 (ip), vehicle: saline with Tween-80 99 % of control | dose: 6.25 mg/kg/injection, schedule: Q01DX009 (ip), vehicle: saline with Tween-80 101 % of control | dose: 12.0 mg/kg/injection, schedule: Q04DX002 (ip), vehicle: saline with Tween-80 108 % of control | dose: 12.5 mg/kg/injection, schedule: Q01DX009 (ip), vehicle: saline with Tween-80 105 % of control | dose: 24.0 mg/kg/injection, schedule: Q04DX002 (ip), vehicle: saline with Tween-80 108 % of control | dose: 25.0 mg/kg/injection, schedule: Q01DX009 (ip), vehicle: saline with Tween-80 111 % of control | dose: 48.0 mg/kg/injection, schedule: Q04DX002 (ip), vehicle: saline with Tween-80 107 % of control

CC(=O)OCC1OC(Nc2[nH]c(=O)n(C)c(=O)c2N=O)C(OC(C)=O)C(OC(C)=O)C1OC(C)=O (stereo not drawn)
inactive: dose: 100.0 mg/kg/injection, schedule: Q04DX002 (ip), vehicle: saline with Tween-80 104 % of control | dose: 200.0 mg/kg/injection, schedule: Q04DX002 (ip), vehicle: saline with Tween-80 103 % of control | dose: 400.0 mg/kg/injection, schedule: Q04DX002 (ip), vehicle: saline with Tween-80 102 % of control

CN(C)CC1C(=O)C2CCC1C2 (stereo not drawn)
inactive: [4] 98 % of control | [5] 98 % of control | [6] 108 % of control

O=C1NC(=O)C2(CC3CCCC(C2)N3CCO)N1 (stereo not drawn)
inactive: dose: 50.0 mg/kg/injection, schedule: Q01DX009 (ip), vehicle: water 101 % of control | dose: 100.0 mg/kg/injection, schedule: Q01DX009 (ip), vehicle: water 101 % of control | dose: 200.0 mg/kg/injection, schedule: Q01DX009 (ip), vehicle: water 100 % of control

O=C1CSc2nc3c(Cl)cc(Cl)cc3c(=O)n21
inactive: [4] 108 % of control | [5] 100 % of control | [6] 105 % of control

CC1(C2CCC3(C)OC3C2)CO1 (stereo not drawn)
inactive: [4] 100 % of control | [5] 100 % of control | [6] 100 % of control

COC(=O)c1[nH]c(=O)c(C#N)c(C(=O)OC)c1-c1ccccn1
inactive: [3] 93 % of control | [7] 92 % of control | [8] 92 % of control

CC(O)CN1C=NC(C)C1 (stereo not drawn)
inactive: [1] 95 % of control | [2] 100 % of control | dose: 200.0 mg/kg/injection, schedule: Q01DX009 (ip), vehicle: saline 103 % of control

COc1ccc(C(N)=O)cc1N=NN(C)C
inactive: dose: 3.12 mg/kg/injection, schedule: Q01DX009 (ip), vehicle: Klucel (hydroxypropylcellulose) (HPC) 103 % of control | dose: 3.13 mg/kg/injection, schedule: Q01DX009 (ip), vehicle: Klucel (hydroxypropylcellulose) (HPC) 103 % of control | [9] 98 % of control | [10] 107 % of control and 114 % of control | [11] 121 % of control and 123 % of control | [12] 118 % of control and 94 % of control

C=C1CC(O)C2C(C[Se]c3ccccc3)C(=O)O[C@@H]2C2C(=C)[C@@H](O)CC12 (stereo partly drawn)
inactive: [3] 96 % of control | [7] 100 % of control | [8] 99 % of control

CCCCCCC(/C=C/c1ccccc1)=N\O
inactive: [9] 107 % of control | [10] 102 % of control | [11] 103 % of control and 104 % of control | [12] 108 % of control and 112 % of control | dose: 100.0 mg/kg/injection, schedule: Q01DX009 (ip), vehicle: Klucel (hydroxypropylcellulose) (HPC) 103 % of control | dose: 200.0 mg/kg/injection, schedule: Q01DX009 (ip), vehicle: Klucel (hydroxypropylcellulose) (HPC) 104 % of control and 110 % of control | dose: 400.0 mg/kg/injection, schedule: Q01DX009 (ip), vehicle: Klucel (hydroxypropylcellulose) (HPC) 109 % of control and 98 % of control
